Earlier results, collected in patent US20070196518A1, “Composition and Method for Mitigating a Negative Effect of Alcohol Consumption” (priority 2005, published 2007).

Details: on average, in subjects who consumed alcohol

Cc1ncc(CO)c(CO)c1O [Vitamin B6, Pyridoxine]
decrease in the number of hangover symptoms: 50%
